Test results as given in PubChem BioAssay (NCI).
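Cells were grown in 96-well plates and exposed to each compound for 48 hours at five concentrations; endpoints were interpolated linearly between bracketing concentrations, or set to the highest concentration if not reached. TGI: total growth inhibition.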

Legend:
Experiment in all cases: growth of human tumour cells (NCI), 48 h
786-0 renal = system: 786-0 renal
A498 renal = system: A498 renal
A549 NSCLC = system: A549 NSCLC
ACHN renal = system: ACHN renal
BT-549 breast = system: BT-549 breast
CAKI-1 renal = system: CAKI-1 renal
CCRF-CEM leukemia = system: CCRF-CEM leukemia
COLO 205 colon = system: COLO 205 colon
DU-145 prostate = system: DU-145 prostate
EKVX NSCLC = system: EKVX NSCLC
HCC-2998 colon = system: HCC-2998 colon
HCT-116 colon = system: HCT-116 colon
HCT-15 colon = system: HCT-15 colon
HL-60(TB) leukemia = system: HL-60(TB) leukemia
HOP-62 NSCLC = system: HOP-62 NSCLC
HOP-92 NSCLC = system: HOP-92 NSCLC
HS 578T breast = system: HS 578T breast
HT29 colon = system: HT29 colon
IGROV1 ovarian = system: IGROV1 ovarian
K-562 leukemia = system: K-562 leukemia
KM12 colon = system: KM12 colon
LOX IMVI melanoma = system: LOX IMVI melanoma
M14 melanoma = system: M14 melanoma
MALME-3M melanoma = system: MALME-3M melanoma
MCF7 breast = system: MCF7 breast
MDA-MB-231 breast = system: MDA-MB-231 breast
MDA-MB-435 = system: MDA-MB-435
MDA-N = system: MDA-N
MOLT-4 leukemia = system: MOLT-4 leukemia
NCI-H226 lung = system: NCI-H226 lung
NCI-H23 lung = system: NCI-H23 lung
NCI-H460 lung = system: NCI-H460 lung
NCI-H522 lung = system: NCI-H522 lung
NCI/ADR-RES ovarian = system: NCI/ADR-RES ovarian
OVCAR-3 ovarian = system: OVCAR-3 ovarian
OVCAR-5 ovarian = system: OVCAR-5 ovarian
OVCAR-8 ovarian = system: OVCAR-8 ovarian
PC-3 prostate = system: PC-3 prostate
RPMI-8226 leukemia = system: RPMI-8226 leukemia
RXF 393 renal = system: RXF 393 renal
SF-268 CNS = system: SF-268 CNS
SF-295 CNS = system: SF-295 CNS
SF-539 CNS = system: SF-539 CNS
SK-MEL-2 melanoma = system: SK-MEL-2 melanoma
SK-MEL-28 melanoma = system: SK-MEL-28 melanoma
SK-MEL-5 melanoma = system: SK-MEL-5 melanoma
SK-OV-3 ovarian = system: SK-OV-3 ovarian
SN12C renal = system: SN12C renal
SNB-19 CNS = system: SNB-19 CNS
SNB-75 CNS = system: SNB-75 CNS
SR leukemia = system: SR leukemia
SW-620 colon = system: SW-620 colon
T-47D breast = system: T-47D breast
TK-10 renal = system: TK-10 renal
U251 CNS = system: U251 CNS
UACC-257 melanoma = system: UACC-257 melanoma
UACC-62 melanoma = system: UACC-62 melanoma
UO-31 renal = system: UO-31 renal

## CCOC(NC(=O)CC)(C(F)(F)F)C(F)(F)F
786-0 renal
  TGI: > 100 µM
A498 renal
  TGI: > 100 µM
A549 NSCLC
  TGI: > 100 µM
ACHN renal
  TGI: > 100 µM
BT-549 breast
  TGI: > 100 µM
CAKI-1 renal
  TGI: > 100 µM
CCRF-CEM leukemia
  TGI: > 100 µM
COLO 205 colon
  TGI: > 100 µM
DU-145 prostate
  TGI: > 100 µM
EKVX NSCLC
  TGI: > 100 µM
HCC-2998 colon
  TGI: > 100 µM
HCT-116 colon
  TGI: > 100 µM
HCT-15 colon
  TGI: > 100 µM
HL-60(TB) leukemia
  TGI: > 100 µM
HOP-62 NSCLC
  TGI: > 100 µM
HOP-92 NSCLC
  TGI: > 100 µM
HS 578T breast
  TGI: > 100 µM
HT29 colon
  TGI: > 100 µM
IGROV1 ovarian
  TGI: > 100 µM
K-562 leukemia
  TGI: > 100 µM
KM12 colon
  TGI: > 100 µM
LOX IMVI melanoma
  TGI: > 100 µM
M14 melanoma
  TGI: > 100 µM
MALME-3M melanoma
  TGI: > 100 µM
MCF7 breast
  TGI: > 100 µM
MDA-MB-231 breast
  TGI: > 100 µM
MDA-MB-435
  TGI: > 100 µM
MDA-N
  TGI: > 100 µM
MOLT-4 leukemia
  TGI: > 100 µM
NCI-H226 lung
  TGI: > 100 µM
NCI-H23 lung
  TGI: > 100 µM
NCI-H460 lung
  TGI: > 100 µM
NCI-H522 lung
  TGI: > 100 µM
NCI/ADR-RES ovarian
  TGI: > 100 µM
OVCAR-3 ovarian
  TGI: > 100 µM
OVCAR-5 ovarian
  TGI: > 100 µM
OVCAR-8 ovarian
  TGI: > 100 µM
PC-3 prostate
  TGI: > 100 µM
RPMI-8226 leukemia
  TGI: > 100 µM
RXF 393 renal
  TGI: 61.2 µM
SF-268 CNS
  TGI: > 100 µM
SF-295 CNS
  TGI: > 100 µM
SF-539 CNS
  TGI: > 100 µM
SK-MEL-2 melanoma
  TGI: > 100 µM
SK-MEL-28 melanoma
  TGI: > 100 µM
SK-MEL-5 melanoma
  TGI: > 100 µM
SK-OV-3 ovarian
  TGI: > 100 µM
SN12C renal
  TGI: > 100 µM
SNB-19 CNS
  TGI: > 100 µM
SNB-75 CNS
  TGI: > 100 µM
SR leukemia
  TGI: > 100 µM
SW-620 colon
  TGI: > 100 µM
T-47D breast
  TGI: > 100 µM
TK-10 renal
  TGI: > 100 µM
U251 CNS
  TGI: > 100 µM
UACC-257 melanoma
  TGI: > 100 µM
UACC-62 melanoma
  TGI: > 100 µM
UO-31 renal
  TGI: > 100 µM

## Cc1ncc(-c2nnnn2-c2ccccc2)c(C(=O)O)n1
786-0 renal
  TGI: > 100 µM
A498 renal
  TGI: > 100 µM
A549 NSCLC
  TGI: > 100 µM
ACHN renal
  TGI: > 100 µM
BT-549 breast
  TGI: > 100 µM
CAKI-1 renal
  TGI: > 100 µM
CCRF-CEM leukemia
  TGI: > 100 µM
COLO 205 colon
  TGI: > 100 µM
DU-145 prostate
  TGI: > 100 µM
EKVX NSCLC
  TGI: > 100 µM
HCC-2998 colon
  TGI: > 100 µM
HCT-116 colon
  TGI: > 100 µM
HCT-15 colon
  TGI: > 100 µM
HL-60(TB) leukemia
  TGI: > 100 µM
HOP-62 NSCLC
  TGI: > 100 µM
HOP-92 NSCLC
  TGI: > 100 µM
HS 578T breast
  TGI: > 100 µM
HT29 colon
  TGI: > 100 µM
IGROV1 ovarian
  TGI: > 100 µM
K-562 leukemia
  TGI: > 100 µM
KM12 colon
  TGI: > 100 µM
LOX IMVI melanoma
  TGI: > 100 µM
M14 melanoma
  TGI: > 100 µM
MALME-3M melanoma
  TGI: > 100 µM
MCF7 breast
  TGI: > 100 µM
MDA-MB-231 breast
  TGI: > 100 µM
MDA-MB-435
  TGI: > 100 µM
MDA-N
  TGI: > 100 µM
MOLT-4 leukemia
  TGI: > 100 µM
NCI-H226 lung
  TGI: > 100 µM
NCI-H23 lung
  TGI: > 100 µM
NCI-H460 lung
  TGI: > 100 µM
NCI-H522 lung
  TGI: > 100 µM
NCI/ADR-RES ovarian
  TGI: > 100 µM
OVCAR-3 ovarian
  TGI: > 100 µM
OVCAR-5 ovarian
  TGI: > 100 µM
OVCAR-8 ovarian
  TGI: > 100 µM
PC-3 prostate
  TGI: > 100 µM
RPMI-8226 leukemia
  TGI: > 100 µM
RXF 393 renal
  TGI: > 100 µM
SF-268 CNS
  TGI: > 100 µM
SF-295 CNS
  TGI: > 100 µM
SF-539 CNS
  TGI: > 100 µM
SK-MEL-2 melanoma
  TGI: > 100 µM
SK-MEL-28 melanoma
  TGI: > 100 µM
SK-MEL-5 melanoma
  TGI: > 100 µM
SK-OV-3 ovarian
  TGI: > 100 µM
SN12C renal
  TGI: > 100 µM
SNB-19 CNS
  TGI: > 100 µM
SNB-75 CNS
  TGI: > 100 µM
SR leukemia
  TGI: > 100 µM
SW-620 colon
  TGI: > 100 µM
T-47D breast
  TGI: > 100 µM
TK-10 renal
  TGI: > 100 µM
U251 CNS
  TGI: > 100 µM
UACC-257 melanoma
  TGI: > 100 µM
UACC-62 melanoma
  TGI: > 100 µM
UO-31 renal
  TGI: > 100 µM
